Measured values taken from patent US7049332B2, “HIV inhibiting N-aminoimidazole derivatives” (K. U. Leuven Research & Development, priority 2001, dated 2006).
In brackets after ≈: the same amount, converted by molar mass.

Test system: not given
Experiment: not given
Conditions: not given

SMILES | melting point [°C]
S=c1[nH]c2c(n1Nc1cccc(Cl)c1)CCCC2 [Compound 9.11, 1-(3-Chlorophenylamino)-2,3,4,5,6,7-hexahydro-1H-benzimidazole-2-thione] | 148
Cc1[nH]c(=S)n(Nc2ccccc2)c1-c1ccccc1 [Compound 9.12, 2,3-Dihydro-4-methyl-5-phenyl-1-(phenylamino)-1H-imidazole-2-thione] | 224 to 226
Cc1ccc(Nn2c(-c3ccccc3)c(C)[nH]c2=S)cc1C [Compound 9.13, 2,3-Dihydro-1-(3,4-dimethylphenylamino)-4-methyl-5-phenyl-1H-imidazole-2-thione] | 228
Cc1[nH]c(=S)n(Nc2cccc(Br)c2)c1-c1ccccc1 [Compound 9.14, 1-(3-Bromophenylamino)-2,3-dihydro-4-methyl-5-phenyl-1H-imidazole-2-thione] | 190
Cc1ccc(Nn2c(-c3ccccc3)c(C)[nH]c2=S)cc1Cl [Compound 9.15, 1-(3-Chloro-4-methylphenylamino)-2,3-dihydro-4-methyl-5-phenyl-1H-imidazole-2-thione] | 190
Cc1[nH]c(=S)n(Nc2cccc([N+](=O)[O-])c2)c1-c1ccccc1 [Compound 9.17, 2,3-Dihydro-4-methyl-1-(3-nitrophenylamino)-5-phenyl-1H-imidazole-2-thione] | 214
Cc1[nH]c(=S)n(Nc2cccc(F)c2)c1-c1ccccc1 [Compound 9.18, 2,3-Dihydro-1-(3-fluorophenylamino)-4-methyl-5-phenyl-1H-imidazole-2-thione] | 226
Cc1cccc(Nn2c(-c3ccccc3)c(C)[nH]c2=S)c1 [Compound 9.19, 2,3-Dihydro-4-methyl-1-(3-methylphenylamino)-5-phenyl-1H-imidazole-2-thione] | 206

Test system: not listed separately
Experiment: Cytotoxicity in mock-infected MT-4 cells (MTT)
Format: cell-based
Conditions: human; mock-infected MT-4 cells, absorbance reduced by 50%, MTT
Method: A rapid and automated assay procedure was used for the in vitro evaluation of anti-HIV agents. An HTLV-1 transformed T4-cell line MT-4, which was previously shown to be highly susceptible to and permissive for HIV infection, served as the target cell line. Inhibition of the HIV-induced cytopathogenic effect was used as the end point. The viabitlity of both HIV-and mock-infected cells was assessed spectrophotometrically via in situ reduction of 3-(4,5-dimethylthiazol-2-yl)-2,5-diphenyltetrazolium bromide (MTT). The 50% cytotoxic concentration (CC50 in μg/ml) was defined as the concentration of compound that reduced the absorbance of the mock-infected control sample by 50%. The percent protection achieved by the compound in HIV-infected cells was calculated by the following formula: Examples of inhibition of cell proliferation by particular compounds of formula (I) can be found by looking at the respective CC50 values in the MT-4 cell line. Cells: MT-4 cells (Miyoshi et al., 1982) were grown and maintained in RPMI 1640 medium supplemented with 10% heat-inactivated fetal calf serum, 2 mM […], 0.1% sodium bicarbonate, and 20 œg of gentamicin per ml.

SMILES | CC50 [µg/mL]
S=c1[nH]c2c(n1Nc1cccc(Cl)c1)CCCC2 [Compound 9.11, 1-(3-Chlorophenylamino)-2,3,4,5,6,7-hexahydro-1H-benzimidazole-2-thione] | 34 (≈ 122 µM)
Cc1[nH]c(=S)n(Nc2ccccc2)c1-c1ccccc1 [Compound 9.12, 2,3-Dihydro-4-methyl-5-phenyl-1-(phenylamino)-1H-imidazole-2-thione] | 14.7 (≈ 52.2 µM)
Cc1ccc(Nn2c(-c3ccccc3)c(C)[nH]c2=S)cc1C [Compound 9.13, 2,3-Dihydro-1-(3,4-dimethylphenylamino)-4-methyl-5-phenyl-1H-imidazole-2-thione] | 17.9 (≈ 57.8 µM)
Cc1[nH]c(=S)n(Nc2cccc(Br)c2)c1-c1ccccc1 [Compound 9.14, 1-(3-Bromophenylamino)-2,3-dihydro-4-methyl-5-phenyl-1H-imidazole-2-thione] | 17.1 (≈ 47.5 µM)
Cc1ccc(Nn2c(-c3ccccc3)c(C)[nH]c2=S)cc1Cl [Compound 9.15, 1-(3-Chloro-4-methylphenylamino)-2,3-dihydro-4-methyl-5-phenyl-1H-imidazole-2-thione] | 16.9 (≈ 51.2 µM)
Cc1[nH]c(=S)n(Nc2cccc([N+](=O)[O-])c2)c1-c1ccccc1 [Compound 9.17, 2,3-Dihydro-4-methyl-1-(3-nitrophenylamino)-5-phenyl-1H-imidazole-2-thione] | 15.4 (≈ 47.2 µM)
Cc1[nH]c(=S)n(Nc2cccc(F)c2)c1-c1ccccc1 [Compound 9.18, 2,3-Dihydro-1-(3-fluorophenylamino)-4-methyl-5-phenyl-1H-imidazole-2-thione] | 47.3 (≈ 158 µM)
Cc1cccc(Nn2c(-c3ccccc3)c(C)[nH]c2=S)c1 [Compound 9.19, 2,3-Dihydro-4-methyl-1-(3-methylphenylamino)-5-phenyl-1H-imidazole-2-thione] | 20.7 (≈ 70.1 µM)

Test system: HIV-2 (ROD)
Experiment: Inhibition of HIV-induced cytopathogenic effect in MT-4 cells (MTT), HIV-2
Format: cell-based
Conditions: Human immunodeficiency virus 2, MT4; 50% protection against HIV-induced cytopathogenic effect, MT-4 cells, MTT
Method: (§1) A rapid and automated assay procedure was used for the in vitro evaluation of anti-HIV agents. An HTLV-1 transformed T4-cell line MT-4, which was previously shown to be highly susceptible to and permissive for HIV infection, served as the target cell line. Inhibition of the HIV-induced cytopathogenic effect was used as the end point. The viabitlity of both HIV-and mock-infected cells was assessed spectrophotometrically via in situ reduction of 3-(4,5-dimethylthiazol-2-yl)-2,5-diphenyltetrazolium bromide (MTT). The 50% cytotoxic concentration (CC50 in μg/ml) was defined as the concentration of compound that reduced the absorbance of the mock-infected control sample by 50%. The percent protection achieved by the compound in HIV-infected cells was calculated by the following formula:
(§2) [formula] whereby (ODT)HIV is the optical density measured with a given concentration of the test compound in HIV-infected cells; (ODC)HIV is the optical density measured for the control untreated HIV-infected cells; (ODC)MOCK is the optical density measured for the control untreated mock-infected cells; all optical density values were determined at 540 nm. The dose achieving 50% protection according to the above formula was defmed as the 50% inhibitory concentration (IC50 in μg/ml). The ratio of CC50 to IC50 was defined as the selectivity index (SI).
(§3) Cells: MT-4 cells (Miyoshi et al., 1982) were grown and maintained in RPMI 1640 medium supplemented with 10% heat-inactivated fetal calf serum, 2 mM 1-glutamine, 0.1% sodium bicarbonate, and 20 œg of gentamicin per ml.
(§4) Viruses: The HIV-1(NL4.3) strain (Adachi et al., 1986) is a molecular clone obtained from the National Institutes of Health (Bethesda, Md.). The HIV-2(ROD) (Barr,-Sinoussi et al., 1983) stock was obtained from culture supernatant of HIV-2 infected cell lines.

SMILES | IC50 [µg/mL]
S=c1[nH]c2c(n1Nc1cccc(Cl)c1)CCCC2 [Compound 9.11, 1-(3-Chlorophenylamino)-2,3,4,5,6,7-hexahydro-1H-benzimidazole-2-thione] | > 34
Cc1[nH]c(=S)n(Nc2ccccc2)c1-c1ccccc1 [Compound 9.12, 2,3-Dihydro-4-methyl-5-phenyl-1-(phenylamino)-1H-imidazole-2-thione] | > 14.7
Cc1ccc(Nn2c(-c3ccccc3)c(C)[nH]c2=S)cc1C [Compound 9.13, 2,3-Dihydro-1-(3,4-dimethylphenylamino)-4-methyl-5-phenyl-1H-imidazole-2-thione] | > 17.9
Cc1[nH]c(=S)n(Nc2cccc(Br)c2)c1-c1ccccc1 [Compound 9.14, 1-(3-Bromophenylamino)-2,3-dihydro-4-methyl-5-phenyl-1H-imidazole-2-thione] | > 17.1
Cc1ccc(Nn2c(-c3ccccc3)c(C)[nH]c2=S)cc1Cl [Compound 9.15, 1-(3-Chloro-4-methylphenylamino)-2,3-dihydro-4-methyl-5-phenyl-1H-imidazole-2-thione] | > 16.9
Cc1[nH]c(=S)n(Nc2cccc([N+](=O)[O-])c2)c1-c1ccccc1 [Compound 9.17, 2,3-Dihydro-4-methyl-1-(3-nitrophenylamino)-5-phenyl-1H-imidazole-2-thione] | > 15.4
Cc1[nH]c(=S)n(Nc2cccc(F)c2)c1-c1ccccc1 [Compound 9.18, 2,3-Dihydro-1-(3-fluorophenylamino)-4-methyl-5-phenyl-1H-imidazole-2-thione] | > 47.3
Cc1cccc(Nn2c(-c3ccccc3)c(C)[nH]c2=S)c1 [Compound 9.19, 2,3-Dihydro-4-methyl-1-(3-methylphenylamino)-5-phenyl-1H-imidazole-2-thione] | > 20.7

Same assay, conditions: selectivity index = ratio of CC50 to IC50, HIV-2

SMILES | HIV-2 (ROD) SI
S=c1[nH]c2c(n1Nc1cccc(Cl)c1)CCCC2 [Compound 9.11, 1-(3-Chlorophenylamino)-2,3,4,5,6,7-hexahydro-1H-benzimidazole-2-thione] | <1
Cc1[nH]c(=S)n(Nc2ccccc2)c1-c1ccccc1 [Compound 9.12, 2,3-Dihydro-4-methyl-5-phenyl-1-(phenylamino)-1H-imidazole-2-thione] | <1
Cc1ccc(Nn2c(-c3ccccc3)c(C)[nH]c2=S)cc1C [Compound 9.13, 2,3-Dihydro-1-(3,4-dimethylphenylamino)-4-methyl-5-phenyl-1H-imidazole-2-thione] | <1
Cc1[nH]c(=S)n(Nc2cccc(Br)c2)c1-c1ccccc1 [Compound 9.14, 1-(3-Bromophenylamino)-2,3-dihydro-4-methyl-5-phenyl-1H-imidazole-2-thione] | <1
Cc1ccc(Nn2c(-c3ccccc3)c(C)[nH]c2=S)cc1Cl [Compound 9.15, 1-(3-Chloro-4-methylphenylamino)-2,3-dihydro-4-methyl-5-phenyl-1H-imidazole-2-thione] | <1
Cc1[nH]c(=S)n(Nc2cccc([N+](=O)[O-])c2)c1-c1ccccc1 [Compound 9.17, 2,3-Dihydro-4-methyl-1-(3-nitrophenylamino)-5-phenyl-1H-imidazole-2-thione] | <1
Cc1[nH]c(=S)n(Nc2cccc(F)c2)c1-c1ccccc1 [Compound 9.18, 2,3-Dihydro-1-(3-fluorophenylamino)-4-methyl-5-phenyl-1H-imidazole-2-thione] | <1
Cc1cccc(Nn2c(-c3ccccc3)c(C)[nH]c2=S)c1 [Compound 9.19, 2,3-Dihydro-4-methyl-1-(3-methylphenylamino)-5-phenyl-1H-imidazole-2-thione] | <1

Test system: HIV-1 (NL4.3 WT)
Experiment: Inhibition of HIV-induced cytopathogenic effect in MT-4 cells (MTT), HIV-1
Format: cell-based
Conditions: Human immunodeficiency virus 1, MT4; 50% protection against HIV-induced cytopathogenic effect, MT-4 cells, MTT
Method: as §1, §2, §3, §4

SMILES | IC50 [µg/mL]
S=c1[nH]c2c(n1Nc1cccc(Cl)c1)CCCC2 [Compound 9.11, 1-(3-Chlorophenylamino)-2,3,4,5,6,7-hexahydro-1H-benzimidazole-2-thione] | 13.1 (≈ 46.8 µM)
Cc1[nH]c(=S)n(Nc2ccccc2)c1-c1ccccc1 [Compound 9.12, 2,3-Dihydro-4-methyl-5-phenyl-1-(phenylamino)-1H-imidazole-2-thione] | 5.2 (≈ 18.5 µM)
Cc1ccc(Nn2c(-c3ccccc3)c(C)[nH]c2=S)cc1C [Compound 9.13, 2,3-Dihydro-1-(3,4-dimethylphenylamino)-4-methyl-5-phenyl-1H-imidazole-2-thione] | 1.1 (≈ 3.55 µM)
Cc1[nH]c(=S)n(Nc2cccc(Br)c2)c1-c1ccccc1 [Compound 9.14, 1-(3-Bromophenylamino)-2,3-dihydro-4-methyl-5-phenyl-1H-imidazole-2-thione] | 1.6 (≈ 4.44 µM)
Cc1ccc(Nn2c(-c3ccccc3)c(C)[nH]c2=S)cc1Cl [Compound 9.15, 1-(3-Chloro-4-methylphenylamino)-2,3-dihydro-4-methyl-5-phenyl-1H-imidazole-2-thione] | 3.6 (≈ 10.9 µM)
Cc1[nH]c(=S)n(Nc2cccc([N+](=O)[O-])c2)c1-c1ccccc1 [Compound 9.17, 2,3-Dihydro-4-methyl-1-(3-nitrophenylamino)-5-phenyl-1H-imidazole-2-thione] | 3.7 (≈ 11.3 µM)
Cc1[nH]c(=S)n(Nc2cccc(F)c2)c1-c1ccccc1 [Compound 9.18, 2,3-Dihydro-1-(3-fluorophenylamino)-4-methyl-5-phenyl-1H-imidazole-2-thione] | 5.5 (≈ 18.4 µM)
Cc1cccc(Nn2c(-c3ccccc3)c(C)[nH]c2=S)c1 [Compound 9.19, 2,3-Dihydro-4-methyl-1-(3-methylphenylamino)-5-phenyl-1H-imidazole-2-thione] | 0.6 (≈ 2.03 µM)

Same assay, conditions: selectivity index = ratio of CC50 to IC50, HIV-1

SMILES | HIV-1 (NL4.3 WT) SI
S=c1[nH]c2c(n1Nc1cccc(Cl)c1)CCCC2 [Compound 9.11, 1-(3-Chlorophenylamino)-2,3,4,5,6,7-hexahydro-1H-benzimidazole-2-thione] | 2.6
Cc1[nH]c(=S)n(Nc2ccccc2)c1-c1ccccc1 [Compound 9.12, 2,3-Dihydro-4-methyl-5-phenyl-1-(phenylamino)-1H-imidazole-2-thione] | 2.8
Cc1ccc(Nn2c(-c3ccccc3)c(C)[nH]c2=S)cc1C [Compound 9.13, 2,3-Dihydro-1-(3,4-dimethylphenylamino)-4-methyl-5-phenyl-1H-imidazole-2-thione] | 16.3
Cc1[nH]c(=S)n(Nc2cccc(Br)c2)c1-c1ccccc1 [Compound 9.14, 1-(3-Bromophenylamino)-2,3-dihydro-4-methyl-5-phenyl-1H-imidazole-2-thione] | 10.5
Cc1ccc(Nn2c(-c3ccccc3)c(C)[nH]c2=S)cc1Cl [Compound 9.15, 1-(3-Chloro-4-methylphenylamino)-2,3-dihydro-4-methyl-5-phenyl-1H-imidazole-2-thione] | 4.7
Cc1[nH]c(=S)n(Nc2cccc([N+](=O)[O-])c2)c1-c1ccccc1 [Compound 9.17, 2,3-Dihydro-4-methyl-1-(3-nitrophenylamino)-5-phenyl-1H-imidazole-2-thione] | 4.2
Cc1[nH]c(=S)n(Nc2cccc(F)c2)c1-c1ccccc1 [Compound 9.18, 2,3-Dihydro-1-(3-fluorophenylamino)-4-methyl-5-phenyl-1H-imidazole-2-thione] | 8.6
Cc1cccc(Nn2c(-c3ccccc3)c(C)[nH]c2=S)c1 [Compound 9.19, 2,3-Dihydro-4-methyl-1-(3-methylphenylamino)-5-phenyl-1H-imidazole-2-thione] | 32.3
